Results on 21 compounds are retold here after ChEMBL document CHEMBL6153135, “Rational Design of a Potent, Selective, and Metabolically Stable CDK9 Inhibitor to Counteract Osimertinib Resistance through Mcl-1 Suppression and Enhanced BRD4 Co-Targeting” (J Med Chem, 2025).

One may read the IC50 as the concentration at which inhibition is half-maximal. As usually defined, the half-life is how long it takes for the measured level to halve. For orientation: solubility means the concentration that dissolves in the medium under given conditions. Read a low solubility as little dissolved substance.

The target of one data set is CDK9/cyclin T1 (Homo sapiens, UniProt P50750). Nature of the data set: Inhibition of CDK9/cyclin T1 (unknown origin) preincubated for 10 mins followed by substrate/ATP measured after 60 mins by ADP-Glo assay. In kind it is protein-complex assay. A general note: ADP-Glo turns the ADP formed in a reaction into a luminescent signal.
Another data set concerns the target CDK2/Cyclin A2 (Homo sapiens, UniProt P24941). Nature of the data set: Inhibition of CDK2/Cyclin A2 (unknown origin) preincubated for 10 mins followed by substrate/ATP measured after 60 mins by ADP-Glo assay. The data set is classed as protein-complex assay.
A short description of data set [1]: Anti-proliferative activity against human Osimertinib-resistant HCC827 cells assessed as cell inhibition measured after 72 hrs by MTT assay. The data set is classed as functional, cell-based. (In general: Tetrazolium assays rely on reduction of a dye to a coloured formazan, in cell work by metabolically active cells.)
Data set [2] is described as follows: Metabolic stability in human liver microsomes assessed as half life measured for 5 to 60 mins by LC-MS/MS analysis. The conditions noted are these: time 5-60 min. In kind it is ADME, Microsome. On the technique in general: Microsomes from liver hold many membrane-bound enzymes, among them those of drug oxidation.
The nature of data set [3]: Metabolic stability in rat liver microsomes assessed as half life measured for 5 to 60 mins by LC-MS/MS analysis. In kind it is ADME, Microsome. The settings on record: time 5-60 min.
The subject of data set [4] is NCI-H1975. Description: Anti-proliferative activity against human NCI-H1975 cells assessed as cell inhibition measured after 72 hrs by MTT assay. The data set is classed as functional, cell-based. The settings on record: NCI-H1975, 72 h.
Data set [5] can be described thus: Solubility of compound in PBS at pH 6.0 incubated for 2 hrs by HPLC analysis. In kind it is physicochemical.
For data set [6], the system named is Osimertinib-resistant NCI-H1975 cell. Nature of the data set: Anti-proliferative activity against human Osimertinib-resistant NCI-H1975 cells assessed as cell inhibition measured after 72 hrs by MTT assay. In kind it is functional, cell-based.
The test system of another data set is HCC827. Description: Anti-proliferative activity against human HCC827 cells assessed as cell inhibition measured after 72 hrs by MTT assay. In kind it is functional, cell-based. The conditions noted are these: HCC827, 72 h.
Another data set relates to NCI-H1299. Description: Anti-proliferative activity against human NCI-H1299 cells assessed as cell inhibition measured after 72 hrs by MTT assay. In kind it is functional, cell-based. The conditions noted are these: NCI-H1299, 72 h.
A further data set concerns PC-9. Description: Anti-proliferative activity against human PC-9 cells assessed as cell inhibition measured after 72 hrs by MTT assay. In kind it is functional, cell-based. The conditions noted are these: PC-9, 72 h.
The test system of the next data set is NCI-H596. Description: Anti-proliferative activity against human NCI-H596 cells assessed as cell inhibition measured after 72 hrs by MTT assay. The data set is classed as functional, cell-based. The conditions noted are these: NCI-H596, 72 h.
In a further data set the test system is 16HBE14o-. Description: Anti-proliferative activity against human 16-HBE cells assessed as cell inhibition measured after 72 hrs by MTT assay. In kind it is functional, cell-based.
Data set [7] has as its system Osimertinib-resistant NCI-H1975 cell. Description: Induction of apoptosis in human Osimertinib-resistant NCI-H1975 cells assessed as viable cells at 0.5 uM incubated for 16 hrs by Annexin V-FITC/PI staining based flow cytometry (reference value: 89.4 %). In kind it is functional. The settings on record: read-out: Activity.
Data set [8] has the same test system. Nature of the data set: Induction of apoptosis in human Osimertinib-resistant NCI-H1975 cells assessed as early apoptotic cells at 0.5 uM incubated for 16 hrs by Annexin V-FITC/PI staining based flow cytometry (reference value: 4.39 %). In kind it is functional.
For data set [9] the test system is unchanged. Nature of the data set: Induction of apoptosis in human Osimertinib-resistant NCI-H1975 cells assessed as late apoptotic cells at 0.5 uM incubated for 16 hrs by Annexin V-FITC/PI staining based flow cytometry (reference value: 5.92 %). In kind it is functional.
The test system is the same in data set [10]. Nature of the data set: Induction of apoptosis in human Osimertinib-resistant NCI-H1975 cells assessed as necrotic cells at 0.5 uM incubated for 16 hrs by Annexin V-FITC/PI staining based flow cytometry (reference value: 0.33 %). The data set is classed as functional.
The test system of data set [11] is Osimertinib-resistant HCC827 cell. Nature of the data set: Antitumor activity against human Osimertinib-resistant HCC827 cells xenografted in BALB-c nude mouse assessed as tumor growth inhibition at 30 mg/kg, ip. In kind it is functional, organism-based.
In data set [12] the test system is NCI-H1975. Nature of the data set: Antitumor activity against human NCI-H1975 cells xenografted in BALB-c nude mouse assessed as tumor growth inhibition at 30 mg/kg, ip. The data set is classed as functional, organism-based.
A short description of data set [13]: Toxicity in BALB-c mouse xenografted with human NCI-H1975 cells assessed as decrease in body weight at 30 mg/kg, ip. The data set is classed as organism-based. The settings on record: in vivo.
A short description of data set [14]: Toxicity in BALB-c mouse xenografted with human Osimertinib-resistant HCC827 cells assessed as decrease in body weight at 30 mg/kg, ip. The conditions noted are these: in vivo. The data set is classed as organism-based.

≈ marks a conversion by molar mass, not a printed value. Calls of active or inactive are those of the source. No cut-off for these calls is given here.

Chain of CDK9/cyclin T1 (O60563 whole entry): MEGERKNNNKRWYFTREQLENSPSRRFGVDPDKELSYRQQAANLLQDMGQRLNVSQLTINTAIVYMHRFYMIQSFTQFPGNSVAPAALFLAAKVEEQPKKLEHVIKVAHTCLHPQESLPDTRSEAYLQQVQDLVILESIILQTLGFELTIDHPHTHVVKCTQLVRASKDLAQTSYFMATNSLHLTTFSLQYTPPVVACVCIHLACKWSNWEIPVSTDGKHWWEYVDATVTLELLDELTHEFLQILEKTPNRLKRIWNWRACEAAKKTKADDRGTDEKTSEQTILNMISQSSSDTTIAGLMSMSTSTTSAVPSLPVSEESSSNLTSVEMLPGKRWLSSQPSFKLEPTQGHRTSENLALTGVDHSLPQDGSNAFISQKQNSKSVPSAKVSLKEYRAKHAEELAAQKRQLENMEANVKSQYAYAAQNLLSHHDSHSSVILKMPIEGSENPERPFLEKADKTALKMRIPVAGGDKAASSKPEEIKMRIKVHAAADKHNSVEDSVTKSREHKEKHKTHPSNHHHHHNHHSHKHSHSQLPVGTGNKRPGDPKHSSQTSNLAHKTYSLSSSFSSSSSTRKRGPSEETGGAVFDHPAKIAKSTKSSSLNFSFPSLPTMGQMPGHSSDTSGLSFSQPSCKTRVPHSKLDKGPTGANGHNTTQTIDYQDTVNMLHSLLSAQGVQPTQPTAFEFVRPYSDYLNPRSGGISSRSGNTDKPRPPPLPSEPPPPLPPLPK
Chain of CDK9/cyclin T1 (P50750 whole entry): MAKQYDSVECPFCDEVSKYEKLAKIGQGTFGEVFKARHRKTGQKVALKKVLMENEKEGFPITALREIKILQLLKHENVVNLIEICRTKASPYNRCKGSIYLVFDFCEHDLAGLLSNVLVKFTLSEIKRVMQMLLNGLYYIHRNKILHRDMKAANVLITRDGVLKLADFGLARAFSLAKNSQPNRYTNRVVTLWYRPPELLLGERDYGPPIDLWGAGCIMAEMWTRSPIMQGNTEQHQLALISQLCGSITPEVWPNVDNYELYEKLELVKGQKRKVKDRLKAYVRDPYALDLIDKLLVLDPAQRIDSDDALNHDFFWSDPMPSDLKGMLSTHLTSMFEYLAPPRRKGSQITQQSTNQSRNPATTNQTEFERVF

Take `CC(=O)N1CCC(NC(=O)c2ccc3cc2OCCCCCCOc2cncc(c2)-c2nc(ncc2F)N3)CC1`: the IC50 against CDK9/cyclin T1 came out at 1 nM; at CDK2/Cyclin A2 it was 20.6 nM; in [1] it was 40 nM.

With `CN1CCN(CCNC(=O)c2ccc3cc2OCCCCCCOc2cc(ccc2F)-c2nc(ncc2F)N3)CC1`, the half-life in data set [2] is 13.2 min; in data set [3], 9.5 min.

With `O=C(NC1CCN(C2CCOC2)CC1)c1ccc2cc1OCCCCCCn1cc(cn1)-c1nc(ncc1F)N2` (stereo not given), the IC50 against CDK9/cyclin T1 was found to be 1.3 nM; against CDK2/Cyclin A2, 14.2 nM; in the data set on NCI-H1975 [4], 90 nM; in data set [1] it was 80 nM. For the same compound, the concentration in solution in data set [5] (solubility at 2 h) was 35 µg/mL (≈ 63.7 µM).

`COc1cc(F)ccc1-c1cc(Nc2cc(CS(C)(=N)=O)ccn2)ncc1F` (stereo not given) [ENITOCICLIB]: the IC50 in [6] was 120 nM; in the data set with NCI-H1975 [4], 140 nM; in [1], 130 nM; in the data set with HCC827 it was 130 nM; in the data set on NCI-H1299, 130 nM; with PC-9, 120 nM. Besides, the results for the IC50 in the data set with NCI-H596 and with 16HBE14o- were 90 nM and 410 nM, respectively. Also, the viability at 0.5 µM in [7] was 76.9%. The figures for the Activity in data set [8], in data set [9] and in data set [10] were 11.8%, 10.1% and 1.26%, respectively.

Take `CN1CCC(CNC(=O)c2ccc3cc2OCCCCCCOc2cc(ccc2F)-c2nc(ncc2F)N3)CC1`: the half-life was found to be 112 min in data set [2] and 12.4 min in data set [3]. In addition, the IC50 against CDK9/cyclin T1 came out at 3.1 nM; against CDK2/Cyclin A2, 38.9 nM; in data set [6], 250 nM.

On to `O=C(NC1CCN(C2CC2)CC1)c1ccc2cc1OCCCCCCOc1cc(ccc1F)-c1nc(ncc1F)N2`, for which the half-life in [2] was found to be 21.4 min; in data set [3], 64.7 min. Also, the half-maximal inhibitory concentration (IC50) against CDK9/cyclin T1 was found to be 3.4 nM; at CDK2/Cyclin A2, 370 nM; in [6], 230 nM; in the data set with NCI-H1975 [4], 320 nM; in data set [1], 210 nM.

Consider `COC[C@@H](C)NC(=O)c1ccc2cc1OCCCCCCOc1cc(ccc1F)-c1nc(ncc1F)N2`, for which the figures for the half-life in data set [2] and in data set [3] were 11.3 min and 123 min, respectively. The half-inhibitory concentration (IC50) was 2.5 nM against CDK9/cyclin T1; over 500 nM on CDK2/Cyclin A2; 220 nM in data set [6]; 300 nM in the data set with NCI-H1975 [4]; 280 nM in data set [1].

For the compound `O=C(NC1CCN(C2CCOC2)CC1)c1ccc2cc1OCCCCCCOc1cc(ccc1F)-c1nc(ncc1F)N2` (stereo not given), the results for the half-life in [2] and in data set [3] were 55 min and 25.2 min, respectively. Besides, the IC50 at CDK9/cyclin T1 turned out to be 1 nM; against CDK2/Cyclin A2 it was 150 nM; in data set [6], 110 nM; with NCI-H1975 [4], 380 nM; in data set [1] it was 300 nM.

Regarding `O=C(NCCN1CCOCC1)c1ccc2cc1OCCCCCCOc1cc(ccc1F)-c1nc(ncc1F)N2`, the results for the half-life in [2] and in [3] were 10.7 min and 6.8 min, respectively. Moreover, the IC50 with NCI-H1975 [4] stood at 180 nM; in [1], 240 nM. The compound also yielded a solubility at 2 h in [5] of 17 µg/mL (≈ 30.7 µM).

In the case of `O=C(NC1CCN(C2CCOCC2)CC1)c1ccc2cc1OCCCCCCOc1cc(ccc1F)-c1nc(ncc1F)N2`, in data set [2], the half-life came to 301 min.

For `O=C(NCCN1CCCC1)c1ccc2cc1OCCCCCCOc1cc(ccc1F)-c1nc(ncc1F)N2`, the half-life in data set [2] came out at 37.7 min; in data set [3] it was 36.7 min. The IC50 at CDK9/cyclin T1 is 1.7 nM; against CDK2/Cyclin A2 it was 18.3 nM; in [6], 100 nM; in the data set with NCI-H1975 [4] it was 290 nM; in data set [1] it was 140 nM.

Turning to `Cc1sc2c(c1C)C(c1ccc(Cl)cc1)=N[C@@H](CC(=O)OC(C)(C)C)c1nnc(C)n1-2`, the IC50 was found to be 2290 nM in [6], 3970 nM with NCI-H1975 [4], 8910 nM in data set [1] and 9740 nM in the data set with HCC827. The inhibition result (in [11]; in the data set with NCI-H1975 [12]) was “inactive” in each case. In addition, the Activity entry in data set [13] and in data set [14] was “Non-toxic” throughout.

As for `O=C(CN1CCOCC1)NCc1ccc2cc1OCCCCCCOc1cc(ccc1F)-c1nc(ncc1F)N2`, the IC50 on CDK9/cyclin T1 is 5.13 nM; on CDK2/Cyclin A2 it was 200 nM; in the data set with NCI-H1975 [4], 590 nM. Besides, in data set [5], the solubility at 2 h worked out at 20 µg/mL (≈ 36.1 µM).

For `O=C(NC1CCN(C2CCOC2)CC1)c1ccc2cc1OCCCCCCOc1cc(ccc1F)-c1ncnc(n1)N2` (stereo not given), the IC50 stood at 6.1 nM on CDK9/cyclin T1, 286 nM at CDK2/Cyclin A2, 110 nM in the data set with NCI-H1975 [4] and 350 nM in data set [1]. Moreover, the concentration in solution in data set [5] (solubility at 2 h) was 27 µg/mL (≈ 46.8 µM).

For the compound `CC(C)N1CCC(NC(=O)c2ccc3cc2OCCCCCCOc2cc(ccc2F)-c2nc(ncc2F)N3)CC1`, the half-life in data set [2] was determined as 161 min; in data set [3] it was 8.6 min. Besides, the IC50 against CDK9/cyclin T1 worked out at 2.3 nM; on CDK2/Cyclin A2, 67 nM; in [6], 360 nM; with NCI-H1975 [4], 370 nM.

Consider `O=C(NC1CCN(C2CC2)CC1)c1ccc2cc1OCCCCCCn1cc(cn1)-c1nc(ncc1F)N2`, for which the IC50 against CDK9/cyclin T1 is 1 nM; on CDK2/Cyclin A2, 11.4 nM.

For `O=C(NC1CCN(C2CCOC2)CC1)c1ccc2cc1OCCCCCCOc1cncc(c1)-c1nc(ncc1F)N2` (stereo not given), the IC50 was 1.1 nM on CDK9/cyclin T1, 18.1 nM on CDK2/Cyclin A2, 60 nM in the data set with NCI-H1975 [4] and 40 nM in [1]. For the same compound, in data set [5], the concentration in solution (solubility at 2 h) was 58 µg/mL (≈ 101 µM).

As to `CCN1CCC(NC(=O)c2ccc3cc2OCCCCCCOc2cc(ccc2F)-c2nc(ncc2F)N3)CC1`, the half-life in data set [2] stood at 257 min; in data set [3], 5.4 min. Besides, the 50% inhibitory concentration (IC50) against CDK9/cyclin T1 amounted to 2.3 nM; on CDK2/Cyclin A2, 68.8 nM; in data set [6] it was 280 nM; in the data set on NCI-H1975 [4], 280 nM.

In the case of `O=C(NCCN1CCOCC1)c1ccc2cc1OCCCCCCOc1cncc(c1)-c1nc(ncc1F)N2`, the half-maximal inhibitory concentration (IC50) against CDK9/cyclin T1 turned out to be 1.5 nM; against CDK2/Cyclin A2, 22.2 nM; with NCI-H1975 [4], 70 nM. In data set [5], this compound yielded a solubility at 2 h of 39 µg/mL (≈ 72.7 µM).

With `CN1CCC(NC(=O)c2ccc3cc2OCCCCCCOc2cc(ccc2F)-c2nc(ncc2F)N3)CC1`, the half-life stood at 66.6 min in data set [2] and 42.5 min in data set [3].

With `O=C(NC1CCN(C2CC2)CC1)c1ccc2cc1OCCCCCCOc1cncc(c1)-c1nc(ncc1F)N2`, the IC50 was 1.4 nM on CDK9/cyclin T1 and 28.3 nM on CDK2/Cyclin A2.
